In article PMC9610434, “Discovery of 2′,6-Bis(4-hydroxybenzyl)-2-acetylcyclohexanone, a Novel FtsZ Inhibitor” (Molecules, 2022):
Where two headings read alike, the source gives them in different places.

Experiments:
Bacillus subtilis 168 [1] = test system: Bacillus subtilis 168; parameters: method as in PMID 28002947; conditions: cited from earlier work
[2] = target: T1, S. pneumoniae FtsZ (SpnFtsZ) (Streptococcus pneumoniae, UniProt A0A0H2ZNE0); conditions: cited from earlier work
Bacillus subtilis 168 [3] = experiment: Growth inhibition / MIC by agar dilution, Bacillus subtilis 168; format: cell-based
Experimental: (§1) The Minimum Inhibitory Concentration (MIC) was determined as described previously, following the agar dilution method. From an overnight culture of Bacillus subtilis 168 (Bs 168), 2% inoculation was performed to a fresh tube containing Luria Broth. When the bacteria reached an O.D600 = 0.4, the culture was serially diluted to a dilution factor of 10^4. Then, 20 μL of the diluted culture was spotted on plates containing different concentrations of 3 (0, 1, 3, 5, 7, 9, 10, 11, 12, 13 μM) and incubated, at 37 °C, for […], after which the colonies were counted. Similar procedure was performed for Streptococcus pneumoniae TIGR4. Bacteria were grown in Todd–Hewitt Yeast Broth up to 0.4 OD600 and serially diluted. Upon addition on to BHI agar plates containing different concentrations of 3 (0.5, 1, 1.5, 2, 3, 5, 7, 10 μM), the colonies were incubated for 24 h, at 37 °C, with 5% CO2. […] IC50 was determined by plotting percentage inhibition versus log of concentration of drug, using GraphPad Prism 7 software.

S. pneumoniae = test system: S. pneumoniae; parameters: method as in PMID 18801997; conditions: cited from earlier work
[4] = test system: Streptococcus pneumoniae TIGR4; experiment: Growth inhibition / MIC by agar dilution, Streptococcus pneumoniae TIGR4; format: cell-based; conditions: for MIC: Streptococcus pneumoniae
Experimental: as §1

[5] = Cytotoxicity testing in mouse skin L929 cells; format: cell-based; conditions: read-out: GI50 (concentration for 50% cell growth inhibition)
Z-ring in Bs 168 cells = experiment: Immunostaining for Z-ring and nucleoid, Bs 168; format: cell-based, Bacillus subtilis; conditions: Bs 168, 8 μM, 10 min
Experimental: (§2) Immunostaining of Bs 168 cells was performed as described previously. Briefly, from an overnight culture of Bs 168, 2% inoculation was performed to a fresh tube containing Luria Broth. When the bacteria reached an O.D600 = 0.4, the culture was divided into two fractions. To one fraction, 8 μM 3 was added, and to another, an equal volume of DMSO. The cells were incubated at 37 °C under shaking conditions for 10 min. Cells were then fixed for 30 min with 2.8% formaldehyde and 0.04% glutaraldehyde. Cells were permeabilized using 0.1% Triton X-100 and then treated with 1 mg/mL lysozyme and 5 mM EDTA for 45 min. Treatment with 0.5% BSA for 30 min was performed to block non-specific binding sites. Then, 1 h treatment each with primary antibody, anti-FtsZ antibody raised in rabbit (1:50 dilution) and secondary antibody (1:400), Alexa Fluor^TM 594 goat anti-rabbit IgG (H+L) was performed. Nucleoid staining was performed with 1 µg/mL 4′-6-diamidino-2-phenylindole (DAPI) for 20 min. Images were captured using Confocal Laser Scanning Microscope—Carl Zeiss, LSM 780. Similar procedure was followed for Sp TIGR4, which was treated with 2 μM 3 for 1 h before following the above immunostaining procedure.

Z-ring in Sp TIGR4 = experiment: Immunostaining for Z-ring and nucleoid, Sp TIGR4; format: cell-based, Streptococcus pneumoniae; conditions: Sp TIGR4, 2 μM, 1 h
Experimental: as §2

membrane of Bs 168 cells = experiment: Membrane staining of live cells with FM 4-64; format: cell-based, Bacillus subtilis; conditions: Bs 168, 8 μM, 10 min
Experimental: Membrane staining of live Bs 168 cells was performed using FM 4–64 stain [28]. Bs 168 cells were grown as described above and treated with 8 μM 3 or equivalent volume of DMSO for 10 min. Cells were pelleted down and resuspended in PBS containing 10 μg/mL FM-4–64 dye. After incubation for another 10 min under shaking conditions in the dark, the cells were washed with PBS to remove excess dye. The cells were then mounted on the slide pre-coated with poly-L-lysine and covered with a coverslip. Images were captured in Confocal Laser Scanning Microscope—Carl Zeiss, LSM 780.

[6] = test system: S. pneumoniae TIGR4 cells; experiment: Scanning electron microscopy of cell morphology; format: cell-based, Streptococcus pneumoniae; conditions: Sp TIGR4, 2 μM, 1 h, SEM
Experimental: Sp TIGR4 was grown as described above and treated with 2 μM 3 or equivalent volume of DMSO for 1 h. The cells were then fixed with 2.8% formaldehyde and 0.04% glutaraldehyde and resuspended in PBS as described earlier. A small volume (5 μL) was spotted on an aluminium foil and allowed to air dry completely. Images were captured using Field Emission Gun-Scanning Electron Microscope (FEG-SEM) JSM-7600F.

[7] = target: T1, S. pneumoniae FtsZ (SpnFtsZ); experiment: Binding to SpnFtsZ by tryptophan fluorescence
Experimental: The binding of 3 to SpnFtsZ was assessed using tryptophan fluorescence. The decrease in the fluorescence intensity of SpnFtsZ in the presence of 3 was measured. Then, 2 μM of SpnFtsZ in 50 mM PIPES pH 7.4, 50 mM KCl, was incubated with different concentrations of 3 (0.2, 0.5, 1, 1.5, 2, 3, 4, 5, 7, 10), at 25 °C, for 10 min. The fluorescence spectra were measured at an emission range of 310 nm to 410 nm, after excitation at 295 nm in JASCO FP-8300 spectrofluorometer. Due to the absorbance of 3 at 340 nm, inner filter correction was performed using the below equation:(1) Fcorrected=Fobserved∗antilog ODex+ODem/2
The binding constant, Kd, was determined using the following equation:(2) ∆F=∆Fmax×L/Kd+L
ΔF is the change in the fluorescence intensity of SpnFtsZ, ΔFmax is the maximal change in the fluorescence of SpnFtsZ when the receptor site is fully occupied, and [L] is the concentration of 3.

SpnFtsZ [8] = experiment: FtsZ polymerization by light scattering at 400 nm; format: biochemical, Streptococcus pneumoniae; conditions: 10 μM SpnFtsZ, 1 mM GTP, increasing concentration
Experimental: SpnFtsZ (10 μM) in 50 mM PIPES pH 7.4, 50 mM KCl and 5 mM MgCl2 (PKM) buffer was incubated with different concentrations of 3 (0, 1, 2, 3, 5, 6, 7) for 20 min, at 25 °C. After the addition of 1 mM GTP, the polymerization was monitored for 600 s, at 37 °C, using light scattering at 400 nm in a JASCO FP-8300 spectrofluorometer.

SpnFtsZ [9] = experiment: FtsZ sedimentation assay; format: biochemical, Streptococcus pneumoniae; conditions: 10 μM compound, 10 μM SpnFtsZ, p = 0.02
Experimental: SpnFtsZ (10 μM) in PKM buffer was incubated with different concentrations of 3 (0.5, 1, 3, 6, 10) for 20 min at 25 °C. The reaction mixture was allowed to polymerize by adding 1 mM GTP and incubated for 600 s, at 37 °C. The mixture was then subjected to ultra-centrifugation at 60,000 RPM for 30 min at 30 °C. The supernatant was collected and quantified using Bradford’s reagent. The amount of FtsZ present in the pellet was assessed by subtracting the supernatant concentration from the total protein [30].

SpnFtsZ [10] = experiment: Transmission electron microscopy of SpnFtsZ filaments; format: biochemical, Streptococcus pneumoniae; conditions: 10 μM compound
Experimental: SpnFtsZ (10 μM) in PKM buffer was incubated without and with 10 μM 3 for 20 min, at 25 °C. The mixture was then polymerized by the addition of 1 mM GTP for 200 s, at 37 °C. Samples for EM were prepared on a fresh carbon–formvar-coated copper EM grid according to a previously described method. Imaging was performed the next day using JEOL JEM 1220 HRTEM (200 kV). ImageJ software was used to determine the length of the FtsZ filaments.

SpnFtsZ [11] = experiment: Atomic force microscopy of SpnFtsZ filaments; format: biochemical, Streptococcus pneumoniae; conditions: 10 μM compound, 4 μM SpnFtsZ; control filaments 9.02 ± 5.2 nm
Experimental: Then, 4 μM SpnFtsZ in PKM buffer was incubated with or without 10 μM 3, for 20 min, at 25 °C. Upon addition of 1 mM GTP, FtsZ was polymerized for 300 s, at 37 °C. AFM samples were prepared according to a previously described method. Then, 20 μL of each sample was added onto the mica sheet and allowed to absorb on it for 15 min. The sheet was then washed with MilliQ and allowed to dry overnight. The samples were imaged the next day using MFP-3D BIO, Asylum Research USA.

[12] = target: T2, FtsZ from Bacillus subtilis (BsFtsZ) (Bacillus subtilis, UniProt P17865); experiment: Transmission electron microscopy of BsFtsZ filaments; format: biochemical; conditions: 20 μM compound, 5 μM BsFtsZ
T2 construct: made in house
Experimental: In another experiment, BsFtsZ (5 μM) in PKM buffer was incubated without and with 20 μM 3 for 20 min, at 25 °C. The mixture was then polymerized by the addition of 1 mM GTP for 600 s, at 37 °C. Samples for imaging were prepared using the same procedure described above.

tubulin = experiment: Tubulin polymerization assay; format: biochemical, goat; conditions: 13 μM tubulin, light scattering at 350 nm
Experimental: Streptococcus pneumoniae FtsZ (SpnFtsZ) and Bacillus subtilis FtsZ (BsFtsZ) were purified as described previously. Tubulin from goat brain was purified as described previously. The concentration of all the proteins was estimated using Bradford’s reagent.
Tubulin polymerization was performed as described previously. Purified tubulin (13 μM) in PEM buffer (50 mM PIPES pH 6.8, 3 mM MgCl2 and 1 mM EGTA) + 10% DMSO was incubated with 3 for 10 min on ice. Then, 1 mM GTP was added to the mixture, and polymerization was monitored by light scattering in SoftMax Spectra Multi Plate reader for 30 min, at 37 °C. The excitation and emission wavelengths were set to 350 nm.

alkaline phosphatase = experiment: Alkaline phosphatase activity assay; format: biochemical; conditions: 5, 10 and 20 μM, PNPP substrate
Experimental: Alkaline phosphatase assay was performed as described previously. Then, 2 U/mL Alkaline Phosphatase enzyme in glycine NaOH buffer, pH 10.4 with 100 mM glycine, 1 mM MgCl2, and 0.1 mM ZnCl2 was incubated with different concentrations (5, 10, and 20 μM) of 3 for 10 min on ice. Immediately after the addition of 250 μM para-4-nitrophenyl phosphate (PNPP), the absorbance at 410 nm was measured for 700 s in a JASCO V-730 spectrophotometer.

T1 sequence (A0A0H2ZNE0 whole entry): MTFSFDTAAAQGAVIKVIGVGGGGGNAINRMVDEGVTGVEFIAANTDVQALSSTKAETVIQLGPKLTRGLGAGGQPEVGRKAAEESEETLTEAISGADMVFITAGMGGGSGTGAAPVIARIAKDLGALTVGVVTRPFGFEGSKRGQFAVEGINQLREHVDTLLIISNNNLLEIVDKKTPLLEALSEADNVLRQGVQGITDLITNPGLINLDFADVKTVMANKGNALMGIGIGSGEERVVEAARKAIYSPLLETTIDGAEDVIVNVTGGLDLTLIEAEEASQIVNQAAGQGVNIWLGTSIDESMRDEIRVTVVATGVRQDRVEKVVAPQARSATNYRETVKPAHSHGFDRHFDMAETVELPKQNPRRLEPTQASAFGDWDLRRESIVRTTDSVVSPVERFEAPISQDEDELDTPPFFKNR
T2 sequence (P17865 whole entry): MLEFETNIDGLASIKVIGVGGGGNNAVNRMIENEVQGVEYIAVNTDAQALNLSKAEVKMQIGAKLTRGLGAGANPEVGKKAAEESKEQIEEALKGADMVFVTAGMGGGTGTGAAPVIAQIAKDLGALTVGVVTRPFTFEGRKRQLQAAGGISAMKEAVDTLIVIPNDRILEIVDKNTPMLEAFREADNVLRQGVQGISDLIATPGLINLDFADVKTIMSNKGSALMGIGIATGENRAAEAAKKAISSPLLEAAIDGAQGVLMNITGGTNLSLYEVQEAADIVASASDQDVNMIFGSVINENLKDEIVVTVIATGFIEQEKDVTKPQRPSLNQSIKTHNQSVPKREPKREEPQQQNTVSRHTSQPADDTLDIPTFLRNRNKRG

O=C(/C=C/c1ccc(O)cc1)C1CCC/C(=C\c2ccc(O)cc2)C1=O (centres unmarked) [Compound 1]
melting point: 225 to 227 °C | IC50 (Bacillus subtilis 168 [1]; Bs168): 1.2 ± 0.5 µM | MIC (Bacillus subtilis 168 [1]; Bs168 cells): 2.0 to 4.0 µg/mL | Kd [2]: 4 ± 1.1 µM

O=C(CCc1ccc(O)cc1)c1cccc(Cc2ccc(O)cc2)c1O [Compound 2, 1-{2-Hydroxy-3-(4-hydroxybenzyl)phenyl}-3-(4-hydroxyphenyl)propan-1-one]
inhibition at 15 µM (Bacillus subtilis 168 [3]; Bacillus subtilis, 168, treatment with 15 µM, read-out: inhibition of growth of B. subtilis (Bs168)): 21.5 ± 0.5%

NC(=O)c1c(F)ccc(OCc2nc3cc(Cl)cnc3s2)c1F [PC190723 4, PC190723]
MIC (S. pneumoniae): more than 64 µg/mL | MIC (S. pneumoniae; converted from µg/mL): > 180 µM

O=C(CCc1ccc(O)cc1)[C@@H]1CCC[C@H](Cc2ccc(O)cc2)C1=O [Compound 3, 2-(4-Hydroxybenzyl)-6-{3-(4-hydroxyphenyl)propanoyl}cyclohexan-1-one]
MIC (Bacillus subtilis 168 [3]; Bacillus subtilis, 168, 6 h, Bs168, agar dilution, 6 h, 37 °C, read-out: MIC): 11 µM | MIC (Bacillus subtilis 168 [3]; Bacillus subtilis, 168, Bs168 cells, converted from µM, read-out: MIC (equivalent)): ≤ 3.5 µg/mL | IC50 (Bacillus subtilis 168 [3]; Bacillus subtilis, 168, Bs168, inhibition of proliferation): 4.97 ± 0.01 µM | IC50 ([4]; Streptococcus pneumoniae TIGR4, inhibition of proliferation): 1 ± 0.01 µM | MIC ([4]; TIGR4, 24 h, Streptococcus pneumoniae TIGR4, agar dilution, 24 h, read-out: MIC): 2 µM | MIC ([4]; TIGR4, S. pneumoniae, converted from µM, read-out: MIC (equivalent)): ≤ 0.7 µg/mL | GI50 [5]: 7 ± 2.35 µM | effect on nucleoid separation (Z-ring in Bs 168 cells; DAPI): no effect on the nucleoid separation | dividing cells with a prominent Z-ring (Z-ring in Bs 168 cells; control 35 ± 17%): 3 ± 3% | effect on nucleoid separation (Z-ring in Sp TIGR4; DAPI): no effect on the nucleoid separation | percentage of cells without a Z-ring (Z-ring in Sp TIGR4; control 50%): 73% | effect on cell membrane (membrane of Bs 168 cells): remains intact | effect on cell morphology and membrane [6]: no changes in the morphology | Kd [7]: 2.2 ± 0.3 µM | effect on FtsZ polymerization (light scattering) (SpnFtsZ [8]): inhibits FtsZ polymerization | reduction of FtsZ pellet compared to control (SpnFtsZ [9]): 17% | FtsZ aggregation (TEM) (SpnFtsZ [10]; 10 μM SpnFtsZ): large aggregates were seen throughout the grid | length of FtsZ filaments (TEM) (SpnFtsZ [10]; control 2.1 ± 1.2 μm): 0.7 ± 0.6 μm | average height of FtsZ aggregates (AFM) (SpnFtsZ [11]): 233.2 ± 151.2 nm | BsFtsZ aggregation (TEM) [12]: large aggregates of BsFtsZ | inhibition of tubulin polymerization (tubulin): no significant inhibition | inhibition of alkaline phosphatase activity (alkaline phosphatase): no detectable inhibitory activity
